# Read-outs that look alike come from different tables or passages of the source.
# Target: T1, CIB1 and αIIb interaction (CIB1-GST : F-αIIb peptide) (Homo sapiens, UniProt Q99828)
# T1 construct: made in house; host or cells: BL-21 plus RIL cells (E. coli)
# T1 sequence (Q99828 1-191): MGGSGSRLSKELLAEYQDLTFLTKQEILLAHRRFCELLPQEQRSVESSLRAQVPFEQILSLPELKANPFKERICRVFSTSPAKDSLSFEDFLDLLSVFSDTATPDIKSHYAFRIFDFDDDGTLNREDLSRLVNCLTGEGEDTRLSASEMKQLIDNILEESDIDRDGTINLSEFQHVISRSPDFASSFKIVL
# Test: FP assay, 1536-well qHTS format (primary and confirmatory screen)
# Assay type: binding
# [1] = qHTS primary screen hits, Table S2, negative = inhibition
# [2] = qHTS primary screen hits, Table S2, negative sign = inhibitory curve
# [3] = qHTS primary screen hits, Table S2, read-out: IC50
# [4] = qHTS primary screen hits, Table S2, negative sign = inhibitory curve, several classes where COUNT > 1
# [5] = qHTS FP screen hits, Table S2, negative = inhibition
# [6] = qHTS FP screen hits, Table S2, read-out: IC50
# [7] = qHTS primary screen of LOPAC/NPACT libraries, negative = inhibition
# [8] = qHTS primary screen of LOPAC/NPACT libraries, negative sign = inhibitory curve
# [9] = qHTS primary screen of LOPAC/NPACT libraries, read-out: IC50
SMILES,Efficacy (%) [1],IC50 [3],Efficacy (%) [7],Curve Class [8],IC50 [9],further results
CN1CCN(c2ncc3nc(-c4cn(C)c5ccccc45)c(=O)n(Cc4cccs4)c3n2)CC1.O=C(O)C(F)(F)F [NCGC00012779-02],-27%,50.1 µM,–,–,–,Curve Class [4]: -2.4
CN(C)c1ccc(C(=C2C=CC(=[N+](C)C)C=C2)c2ccccc2)cc1.CN(C)c1ccc(C(=C2C=CC(=[N+](C)C)C=C2)c2ccccc2)cc1.O=C(O)C(=O)O.O=C([O-])C(=O)O.O=C([O-])C(=O)O [NCGC00013058-02],-53%,100 µM,–,–,–,Curve Class [4]: -3
O=S1(=O)OC(c2ccc(O)cc2)(c2ccc(O)cc2)c2ccccc21 [NCGC00013109-03],-72%,44.7 µM,–,–,–,Curve Class [2]: -2.4
Oc1ccc(Cl)cc1Sc1cc(Cl)ccc1O [NCGC00013679-06],-30%,50.1 µM,–,–,–,Curve Class [4]: -2.4
CCc1oc2ccccc2c1C(=O)c1cc(Br)c(O)c(Br)c1 [NCGC00013895-18],–,–,–,–,–,"Efficacy (%) [5]: -51%; Curve Class (qHTS FP screen hits, Table S2, one class per curve where COUNT > 1, negative sign = inhibitory curve): -2.2; IC50 [6]: 34.9 µM"
O=S(=O)(O)c1ccc2cc(/N=N/c3cc(S(=O)(=O)O)c4cccnc4c3O)ccc2c1 [NCGC00013917-09],-57%,14.3 µM,–,–,–,–
O=C(O)CCc1nc(-c2ccccc2)c(-c2ccccc2)o1 [NCGC00014711-11],–,–,-11%,-2.4,89.1 µM,–
CC[C@@]1(O)C(=O)OCc2c1cc1n(c2=O)Cc2cc3c(CN(C)C)c(O)ccc3nc2-1 [NCGC00014925-07],-147%,24.5 µM,–,–,–,–
Cn1c(=O)c2[nH]c(-c3ccc(S(=O)(=O)O)cc3)nc2n(C)c1=O [NCGC00015000-05],–,–,-28%,-2.2,50.1 µM,–
C=CCn1c(=O)c2c(nc(-c3ccc(S(=O)(=O)O)cc3)n2C)n(C)c1=O [NCGC00015008-05],–,–,-20%,-2.2,25.1 µM,–
NC1(C(=O)O)CCc2cc(C(=O)O)ccc21 (centres unmarked) [NCGC00015024-06],–,–,-25%,-2.2,56.2 µM,–
Nc1ccc2c3c(cccc13)C(=O)NC2=O [NCGC00015035-07],-70%,2.5 µM,–,–,–,Curve Class [2]: -1.2
Nc1nc(N)c2nc(CNc3ccc(C(=O)NC(CCC(=O)O)C(=O)O)cc3)cnc2n1 (centres unmarked) [NCGC00015038-09],-49%,39.8 µM,–,–,–,Curve Class [2]: -2.2
COc1cc(NS(C)(=O)=O)ccc1Nc1c2ccccc2nc2ccccc12.Cl [NCGC00015113-03],–,–,-25%,-2.2,56.2 µM,–
CCN1CCc2nc(N)oc2CC1.Cl [NCGC00015131-04],–,–,-13%,-2.4,39.8 µM,–
O=[N+]([O-])c1cccc2c(Br)n[nH]c12 [NCGC00015143-10],–,–,-16%,-2.4,79.4 µM,–
C[N+](C)(C)CC(=O)O.[Cl-] [NCGC00015150-04],-24%,56.2 µM,–,–,–,Curve Class [4]: -2.4
Cl.Cl.NC(CO)C(=O)NNCc1ccc(O)c(O)c1O (centres unmarked) [NCGC00015163-09],-50%,50.1 µM,–,–,–,Curve Class [4]: -2.2
CN1CCN(c2nc3cc(C(F)(F)F)ccc3n3cccc23)CC1.O=C(O)/C=C\C(=O)O [NCGC00015180-05],-17%,44.7 µM,–,–,–,Curve Class [4]: -2.2
COc1ccc2c(c[n+](C)c3c4cc5c(cc4ccc23)OCO5)c1OC [NCGC00015225-07],–,–,–,–,–,Efficacy (%) [5]: -30%; IC50 [6]: 24.6 µM
CN(N=O)c1cc(O)ccc1O [NCGC00015372-04],-50%,50.1 µM,–,–,–,Curve Class [2]: -2.2
Cc1cc(O)c2c(c1)C(=O)c1cc(O)cc(O)c1C2=O [NCGC00015420-08],-31%,10 µM,–,–,–,Curve Class [2]: -1.2
CCOC(=O)Nc1ccc(NCc2ccc(F)cc2)nc1N.O=C(O)/C=C\C(=O)O [NCGC00015451-04],–,–,-53%,–,39.8 µM,–
NC(Cc1cc(O)c(O)cc1O)C(=O)O (centres unmarked) [NCGC00015503-06],–,–,–,–,–,Curve Class: -2.1; Efficacy (%): -97%; IC50 (IC50 [μM]): 35.5 µM
O=C1Cc2c([nH]c3ccc(Br)cc23)-c2ccccc2N1 [NCGC00015582-06],–,–,-19%,-1.4,20 µM,–
Ic1ccccc1CNC1C2CCN(CC2)C1C(c1ccccc1)c1ccccc1.O=C(O)C(=O)O (centres unmarked) [NCGC00015587-03],–,–,-20%,-3,63.1 µM,–
CCCc1c(OCCCOc2ccc(OCC(=O)O)cc2)ccc(C(C)=O)c1O [NCGC00015599-05],–,–,-25%,-2.2,50.1 µM,–
CN1CCc2ccccc2Cc2[nH]c3ccccc3c2CC1 [NCGC00015614-05],–,–,-28%,-2.4,31.6 µM,–
CC(C)NCC(O)c1cc(O)cc(O)c1.CC(C)NCC(O)c1cc(O)cc(O)c1.O=S(=O)(O)O (centres unmarked) [NCGC00015655-09],-51%,56.2 µM,–,–,–,Curve Class [4]: -2.4
CN(N=O)c1ccc(O)c(O)c1 [NCGC00015706-04],-66%,56.2 µM,–,–,–,Curve Class [4]: -2.4

# Second part, led by results:
Efficacy (%) [1],IC50 [3],Efficacy (%) [7],Curve Class [8],IC50 [9],SMILES,further results
-41%,44.7 µM,–,–,–,CCCCC1(C2CCCC2)Cc2cc(OCC(=O)O)c(Cl)c(Cl)c2C1=O (stereo in doubt) [NCGC00093872-03],Curve Class [2]: -2.2
-48%,35.5 µM,–,–,–,N#Cc1cc2nc([O-])c([O-])nc2cc1[N+](=O)[O-].[Na+].[Na+] [NCGC00015198-04],Curve Class [2]: -2.2
-44%,39.8 µM,–,–,–,COc1ccc2c(c1)c(CC(=O)O)c(C)n2Cc1ccc(Cl)cc1 [NCGC00015217-05],Curve Class [2]: -2.2
–,–,-14%,-2.4,20 µM,Clc1ccccc1C(c1ccccc1)(c1ccccc1)n1ccnc1 [NCGC00015251-09],–
-48%,31.6 µM,–,–,–,O=c1[nH]c2cc([N+](=O)[O-])c([N+](=O)[O-])cc2[nH]c1=O [NCGC00015319-06],Curve Class [2]: -2.2
–,–,-13%,-2.4,70.8 µM,O=c1ccc2ccc(O)c(O)c2o1 [NCGC00015349-05],–
-110%,100 µM,–,–,–,CCCCCCCCCCCCCCC[C@H](O)[C@@H](N)CO [NCGC00015362-05],Curve Class [4]: -2.3
–,–,-37%,-2.2,31.6 µM,O=c1oc(Cl)c(Cl)c2ccccc12 [NCGC00015369-06],–
–,–,-30%,-2.4,56.2 µM,CCCCCCCCCCC/C=C\C(C)(C)/C=C\CCCC(=O)O [NCGC00015371-07],–
-32%,70.8 µM,–,–,–,CNC[C@H](O)c1ccc(O)c(O)c1 [NCGC00015417-04],Curve Class [2]: -2.4
–,–,-26%,-2.2,50.1 µM,CCOC(=O)C1=C(C)NC(C)=C(C(=O)OC)C1c1cccc(Cl)c1Cl (centres unmarked) [NCGC00015455-08],–
–,–,-14%,-2.4,31.6 µM,COc1ccc(Cl)cc1C(=O)NCCc1ccc(S(=O)(=O)NC(=O)NC2CCCCC2)cc1 [NCGC00015467-16],–
–,–,-28%,-2.4,56.2 µM,CN(C)c1cc2c(Nc3ccc4c(cnn4Cc4ccccc4)c3)ncnc2cn1 [NCGC00015468-06],–
–,–,-19%,-2.2,17.8 µM,COc1ccc(NC(=O)c2ccc(-c3ccc(-c4noc(C)n4)cc3C)cc2)cc1N1CCN(C)CC1.Cl [NCGC00015476-05],–
–,–,-28%,-1.4,12.6 µM,CC(C)(Sc1ccc(CCN(CCCCC2CCCCC2)C(=O)NC2CCCCC2)cc1)C(=O)O [NCGC00015480-08],–
–,–,-18%,-1.2,3.5 µM,O=C1Nc2ccccc2/C1=C1/Nc2ccccc2/C1=N\O [NCGC00015545-07],–
-18%,50.1 µM,–,–,–,O=C1NC(c2cccc([N+](=O)[O-])c2)=CCN1c1ccccc1O [NCGC00015571-05],Curve Class [4]: -2.2
-26%,50.1 µM,–,–,–,Cc1c(OCC(F)(F)F)ccnc1C[S+]([O-])c1nc2ccccc2[nH]1 (centres unmarked) [NCGC00015615-15],Curve Class [2]: -2.4
–,–,-29%,-2.2,56.2 µM,O=C(O)/C(=C/c1c(C(=O)O)[nH]c2cc(Cl)cc(Cl)c12)c1ccccc1 [NCGC00015639-04],–
–,–,-11%,-1.4,17.8 µM,CN1CCC2(CCN3CCc4c(oc5ccccc45)C3C2)N(C)C1=O.Cl (centres unmarked) [NCGC00015699-03],–
–,–,-23%,-2.4,63.1 µM,CCOC(=O)C1=C(C)NC(C)=C(C(=O)OC)C1c1cccc([N+](=O)[O-])c1 (centres unmarked) [NCGC00015713-10],–
–,–,-30%,-2.4,44.7 µM,O=c1[nH]c2cc(C(F)(F)F)ccc2n1-c1cc(C(F)(F)F)ccc1O [NCGC00015720-07],–

# From publication PMC11249646, “Small-Molecule Disruptors of the Interaction between Calcium- and Integrin-Binding Protein 1 and Integrin αIIbβ3 as Novel Antiplatelet Agents” (ACS Pharmacology & Translational Science, 2024)
